Measurements published in paper PMC4283194 (Neuroimage, 2014).
Like-named read-outs stand apart in the source and are kept apart here.

Assays:
CB1 receptor [1] = target: T1, CB1 receptor (Homo sapiens, UniProt P21554); test: [11C]MePPEP PET, VT by classic spectral analysis on ROI data (SA-ROIs); type: in vivo; parameters: unit not given beside the values
T1 construct: assess the stability of CB1-receptor quantification in humans in vivo; from tissue; host or cells: living human brain (healthy volunteers), in vivo PET
T1 sequence (P21554 whole entry): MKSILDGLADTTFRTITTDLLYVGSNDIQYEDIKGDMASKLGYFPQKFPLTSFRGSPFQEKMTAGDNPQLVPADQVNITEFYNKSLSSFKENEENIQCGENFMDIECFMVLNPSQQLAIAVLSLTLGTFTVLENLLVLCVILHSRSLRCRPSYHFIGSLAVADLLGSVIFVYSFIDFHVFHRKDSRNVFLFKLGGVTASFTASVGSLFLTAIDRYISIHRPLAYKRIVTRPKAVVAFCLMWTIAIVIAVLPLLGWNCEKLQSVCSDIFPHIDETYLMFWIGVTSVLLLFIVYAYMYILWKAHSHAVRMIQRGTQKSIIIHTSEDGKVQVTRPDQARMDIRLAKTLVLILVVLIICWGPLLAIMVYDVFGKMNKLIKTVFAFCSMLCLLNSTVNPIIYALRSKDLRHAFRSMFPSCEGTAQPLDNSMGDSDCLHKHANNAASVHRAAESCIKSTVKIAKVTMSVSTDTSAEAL
Protocol: (§1) Continuous and intermittent blood samples were collected to allow the subsequent generation of metabolite-corrected arterial plasma time–activity curves (TACs) ([Hammers et al., 2008]). During the first 15 min blood was withdrawn continuously at a rate of 300 ml/h and radioactivity measured in a BGO detection system ([Jones et al., 1994]). To quantify plasma and whole blood radioactivity, as well as to allow quantification of the parent fraction of the radiotracer, intermittent discrete (10 ml) samples were taken with heparinised syringes before the scan (baseline) and at the following time points after scan start: 3, 5, 10, 15, 20, 30, and 50 min. At 75 min, a larger 17 ml sample was taken to allow quantification despite radioactivity decay. […] Continuous plasma input functions (IF) were derived by cross-calibration and combination of the continuous and discrete data, multiplication with the fitted plasma-over-blood ratio, and correction for parent radiotracer fraction, as described in detail in previous studies ([Hammers et al., 2007a], [Jones et al., 1994]).
Volumes of distribution (VTs) ([Innis et al., 2007]) for each ROI were obtained from the dynamic images and the metabolite-corrected IFs using spectral analysis (SA) ([Cunningham and Jones, 1993], [Cunningham et al., 1993], [Turkheimer et al., 1994]). The fast frequency boundary was kept at the default value of 0.1 s^− 1. […] Based on previous work with another tracer with relatively slow kinetics ([Hammers et al., 2007a]), we changed this to 0.00063 s^− 1 (log10 = − 3.20) in order to reduce noise.

CB1 receptor [2] = target: T1, CB1 receptor; test: [11C]MePPEP PET, VT by reversible two-compartment model with variable blood volume (2kbv); type: in vivo
Protocol: as §1
In this model, three microparameters are derived: K1 is the influx of the ligand from the plasma to the tissue compartment containing free, non-specifically bound, and specifically bound ligand, k2 is the efflux constant from the ROI back to plasma ([Cunningham et al., 1991], [Huang et al., 1980]), and bv is a variable blood volume term. VT is then calculated according to the compartmental model equation ([Watabe et al., 2006]):(1) VT=K1/k2.

CB1 receptor [3] = target: T1, CB1 receptor; test: [11C]MePPEP PET, VT by reversible three-compartment model with variable blood volume (4kbv); type: in vivo; parameters: unit not given beside the values
Protocol: as §1
K1 and k2 were calculated as for the 2kbv compartmental model described above; in addition, two additional rate constants were estimated to describe transfer relating to the third compartment: k3, which describes the transfer from the free and non-specifically bound compartment to the specifically bound (third) compartment; and k4, which describes the opposite transfer ([Cunningham et al., 1991], [Huang et al., 1980]). Again, a variable blood volume term was also computed. According to compartmental model equations ([Gunn et al., 2001], [Watabe et al., 2006]):(2) VT=K1/k21+k3/k4.

CB1 receptor [4] = test system: CB1 receptor; parameters: method as in Terry et al., 2008, Terry et al., 2010b, Yasuno et al., 2008; conditions: monkey brain, ref Terry et al., 2008, Terry et al., 2010b, Yasuno et al.; cited from earlier work
CB1 receptor [5] = test system: CB1 receptor; parameters: method as in Terry et al., 2008, Terry et al., 2010b, Yasuno et al., 2008; conditions: determined using CB1 knockout mouse brain, ref Terry et al., 2008, Terry et al., 2010b, Yasuno et al.; cited from earlier work
CB1 receptor [6] = target: T1, CB1 receptor; test: [11C]MePPEP PET, VT by rank shaping regularised spectral analysis (RS-SA); type: in vivo; parameters: VT median: unit not given beside the values
Protocol: as §1
VT values were generated directly from dynamic data sampled using ROIs with rank shaping (RS; orthogonalized-functional-base) regularisation of SA ([Turkheimer et al., 2003]) using in-house “Clickfit” software. As previously described by [Turkheimer et al. (2003)], we used the metabolite-corrected IF, a logarithmically spaced basis, an exponential range of bases extending to − 3.2, and the regional tissue TAC. TACs were weighted according to ([Gunn et al., 1998]):(3) Wi=Li/Tiforframei=1,2,3…35 [wi — weight for frame i; Li — length of frame i (seconds); and Ti — rate of true coincidences (per second)].
The VT for each ROI was then obtained as the plateau of the VT(R), where R is the expected signal-to noise ratio that is used as the regularisation parameter (R) in rank-shaping (Fig. 2; ([Turkheimer et al., 2003])).

[7] = parameters: method as in Terry et al., 2010a; conditions: 370 MBq injected; ref Terry et al., 2010a; cited from earlier work
CB1 receptor [8] = target: T1, CB1 receptor; test: [11C]MePPEP PET, modified standard uptake values (mSUV); type: in vivo; conditions: ~30–60 min after injection
Protocol: Modified standard uptake values (mSUVs; [Innis et al., 2007]) for frames 25–31, i.e. from 29 min 50 s to 58 min 50 s after injection, were also derived for the ROIs according to ([Goffin et al., 2011]):(4) activity×weightkg+70kg/2/injecteddose.

CB1 receptor [9] = target: T1, CB1 receptor; test: [11C]MePPEP PET, VT by classic spectral analysis parametric maps (SA-maps); type: in vivo
Protocol: as §1
The resulting parametric maps of VT values were then sampled in the eight selected ROIs.

**Q.** What does the source list for COc1cccc([C@H]2C[C@@H](N[C@H](C)c3ccccc3)C(=O)N2c2ccc(C(F)(F)F)cc2)c1 [[^11C]MePPEP, (3R,5R)-5-(3-methoxy-phenyl)-3-((R)-1-phenyl-ethylamino)-1-(4-trifluoro-methyl-phenyl)-pyrrolidin-2-one]?
**A.** VT median (CB1 receptor [1]; ACG): 14.4; VT median (CB1 receptor [1]; Accumbens): 13.9; VT median (CB1 receptor [1]; Hippocampus): 12.4; VT median (CB1 receptor [1]; IFG): 13.9; VT median (CB1 receptor [1]; Pallidum): 15.7; VT median (CB1 receptor [1]; Pons): 6.0; VT median (CB1 receptor [1]; Thalamus): 9.6; VT median (CB1 receptor [2]; ACG): 10.3; VT median (CB1 receptor [2]; Hippocampus): 8.0; VT median (CB1 receptor [2]; Pallidum): 10.8; VT median (CB1 receptor [2]; Pons): 3.0; VT median (CB1 receptor [2]; Thalamus): 5.1; VT median (CB1 receptor [3]; ACG): 9.0; VT median (CB1 receptor [3]; Accumbens): 13.6; VT median (CB1 receptor [3]; Caudate): 6.2; VT median (CB1 receptor [3]; Hippocampus): 13.4; VT median (CB1 receptor [3]; Pallidum): 10.6; VT median (CB1 receptor [3]; Pons): 5.3; VT median (CB1 receptor [3]; Thalamus): 6.1; specific binding (CB1 receptor [4]): > 85%; specific binding (CB1 receptor [5]): 65%; VT median (CB1 receptor [6]; ACG): 9.9; VT from VT(R) plateau, example plot (CB1 receptor [6]; Hippocampus, single example): 12; VT median (CB1 receptor [6]; IFG): 9.9; VT median (CB1 receptor [6]; Pallidum): 10.3; VT median (CB1 receptor [6]; Pons): 4.3; VT median (CB1 receptor [6]; Thalamus): 6.5; effective dose per scan [7]: ~ 1.7 mSv; mSUV median (CB1 receptor [8]; ACG): 3.2; mSUV median (CB1 receptor [8]; Accumbens): 3.0; mSUV median (CB1 receptor [8]; Caudate): 2.9; mSUV median (CB1 receptor [8]; IFG): 3.2; mSUV median (CB1 receptor [8]; Pons): 0.9; VT median (CB1 receptor [9]; ACG): 14.8; VT median (CB1 receptor [9]; Caudate): 12.9; VT median (CB1 receptor [9]; Hippocampus): 11.5; VT median (CB1 receptor [9]; IFG): 14.8; VT median (CB1 receptor [9]; Pallidum): 15.8; VT median (CB1 receptor [9]; Pons): 4.4; VT median (CB1 receptor [9]; Thalamus): 13.2
